{"source": "patent US20130053357A1", "about": "“SKIN IRRITATION SUPPRESSANT AND TRANSDERMAL PREPARATION” (HISAMITSU PHARMACEUTICAL CO., INC., priority 2010, published 2013)", "key": {"[1]": {"tested_on": "human three-dimensional culture epidermal model (LabCyte EPI-MODEL)", "test": "Suppression by cholesterol of skin irritation mediator production induced by asenapine and LADA in a human epidermal cell (Experiment 6)", "type": "cell-based", "conditions": "1% by mass of cholesterol; summary of Tables 5 and 6", "protocol": "(§1) A human three-dimensional epidermal culture model obtained by multilayer-culturing a human normal epidermal cell (LabCyte EPI-MODEL, manufactured by Japan Tissue Engineering Co., Ltd.) was used. LabCyte is a cultured skin cultured in a transwell. For the experiment, LabCyte was used with the transwell.\n(§2) The experiment was conducted as below. First, LabCyte was put into a 24-well assay plate. Then, 1 ml of assay medium (Japan Tissue Engineering Co., Ltd.) was added so that it was brought into contact with a bottom surface of the cultured skin in each well of the 24-well assay plate, and was pre-cultured in an incubator with 5% of carbon dioxide concentration at 37° C. for 1 hour.\n(§3) The test solutions of each group were added to the cells, the culture solutions incubated for 48 hours were collected, and a production amount of each skin irritation mediator was measured. The skin irritation mediator was measured by using a commercially available ELISA kit (manufactured by R&D Systems, Inc.). A relative production amount of the skin irritation mediator in each test substance was calculated as below, when the production amount of the skin irritation mediator in the PMA Only Group was set to 100.\nCholesterol was used as a test substance. Asenapine and lauric acid diethanolamide (LADA) were used as the cutaneous irritants.\nTests were conducted by the following group composition. • Solvent Group: A group including only vehicle. Olive oil was used as a vehicle. • Skin Irritant Only Group: A group with addition of only cutaneous irritant dispersed in a vehicle, as a test solution. The concentration of asenapine maleate to be added was 0.6% (asenapine group), and that of LADA was 0.03% (LADA group). • Skin Irritant Plus Cholesterol Group: A group with addition of the drug and 1% by mass of cholesterol which were dispersed in a vehicle, as a test solution.\nThe experiment was conducted while other conditions were set in the same manner as Experiment 1."}, "[2]": {"tested_on": "shaved back of the rabbit", "conditions": "in vivo", "experimental": "<Examination of Reduction in Skin Irritation in a Rabbit by Cholesterol, −1>\nA 19-week-old JW female rabbit was subjected to an experiment.\nSubsequently, the transdermal preparation of each group was applied to a shaved back of the rabbit a single time for 24 hours. Erythema and swelling on the applied site were evaluated 1, 24 and 48 hours after peel-off of the transdermal preparation in accordance with the judgment standard of Draize et al. and an average value of the skin primary irritation index (PII) was calculated."}, "[3]": {"tested_on": "human three-dimensional culture epidermal model (LabCyte EPI-MODEL)", "test": "Production of skin irritation mediators induced by PMA in human three-dimensional epidermal culture model (Experiment 1)", "type": "cell-based", "conditions": "for activity at 1 %: Homo sapiens, test substance 1 mass % with PMA in olive oil, 48 hours", "text": "Changes in production amounts of skin irritation mediators by test substances were examined when cutaneous irritants were caused to act on a human three-dimensional culture epidermal model.\nas §1\nAs test substances, there were used cholesterol (manufactured by Wako Pure Chemical Industries, Ltd.), β-sitosterol (manufactured by TAMA BIOCHEMICAL CO., LTD.), α-spinasterol (manufactured by ChromaDex, Inc.), ergosterol (manufactured by Wako Pure Chemical Industries, Ltd.), campesterol (manufactured by TAMA BIOCHEMICAL CO., LTD.), glycyrrhizin (manufactured by Wako Pure Chemical Industries, Ltd.), glycyrrhetinic acid (manufactured by Wako Pure Chemical Industries, Ltd.), ginsenoside (manufactured by Wako Pure Chemical Industries, Ltd.), squalene (manufactured by Wako Pure Chemical Industries, Ltd.), squalane (manufactured by Tokyo Chemical Industry Co., Ltd.) and lanosterol (manufactured by ChromaDex, Inc.), which are candidates of a skin irritation suppressant.\nAs skin irritants, Phorbol 12-Myristate 13-Acetate (PMA, manufactured by Wako Pure Chemical Industries, Ltd.) was used. In addition, as vehicle, olive oil (manufactured by Wako Pure Chemical Industries, Ltd.) was used.\nExperiments were conducted by the following group composition. • PMA Only Group: A group with addition of only 0.00001 mol of PMA dispersed in a vehicle, as a test solution. • Test Substance Group: A group with addition of 0.00001 mol of PMA and the test substance which were dispersed in a vehicle, as a test solution.\nas §2\nNext, a cell survival rate was measured by the MTT method after causing the test solutions of each group to act. Specifically, 50 μL of the test solution of each group was added to the surface of the LabCyte after preculture, was cultured in the incubator with 5% of carbon dioxide concentration at 37° C. for 48 hours, then was transferred to the assay medium comprising 0.5 mg/ml of MTT reagent, and was cultured in the incubator with 5% of carbon oxide level at 37° C. for 3 hours. Then, LabCyte was immersed in 0.3 ml of an isopropanol solution, and the produced blue-purple formazan was extracted for 2 hours. After extraction, an absorbance at 570 nm was measured by a 96 microplate reader. The cell survival rate was calculated as below.\nCell survival rate (%)=(absorbance of Test Substance Group)/(absorbance of PMA Only Group)×100\nSubsequently, a production amount of the skin irritation mediator at a test substance concentration with 80% or more of cell survival rate was measured. As skin irritation mediators, PGE2, IL-1α, IL-6, IL-8 were measured.\nas §3\nRelative production amount=(production amount of the mediator in Test Substance Group)/(production amount of the mediator in PMA Only Group)×100"}, "[4]": {"tested_on": "croton oil-induced mouse ear swelling", "test": "Suppression of croton oil-induced mouse ear swelling reaction (Experiment 3)", "type": "in vivo", "text": "<Suppression of Croton Oil-Induced Mouse Ear Swelling Reaction by the Test Substances>\nSuppression of mouse ear swelling was examined through the use of croton oil (Wako Pure Chemical Industries, Ltd.) as a swelling inducer. A 7-week-old ddY female mouse (SPF) was subjected to an experiment. As test substances, cholesterol, glycyrrhizin, glycyrrhetinic acid, squalene, ergosterol, squalane and lanosterol were used. As a vehicle, acetone (Wako Pure Chemical Industries, Ltd.) was used.\nExperiments were conducted by the following group composition. • Positive Control Group: A group which received only the vehicle as a primary test solution, and one hour after, received a 2% croton oil solution as a secondary test solution. • Test Substance Group: A group in which only the vehicle was administered as a primary test solution, and one hour after, a 2% croton oil solution including 1% by mass of test substance was administered as a secondary test solution.\nAn inhibition ratio of ear swelling was calculated as below. In this test, a […] inflammation model is used to examine immediate swelling reactions. In accordance with the group composition, 25 μL of the primary test solution was uniformly coated on back sides of both ears in an etherize mouse, and one hour after, 25 μL of the secondary test solution was uniformly coated in accordance with the group composition. Prior to coating of the secondary test solution, a thickness of auricle was measured by DIAL […] GAUGE (OZAKI MFG CO., LTD.). Furthermore, the secondary test solution was administered, and 6 hours after, the auricular thickness was measured in the same way as mentioned above, and an increased amount of the auricular thickness was set by deducting the thickness measured prior to administration of the secondary test solution. The inhibition ratio of ear swelling was calculated as below.\nInhibition ratio of ear swelling (%)=(increased amount of auricular thickness in Test Substance Group−increased amount of auricular thickness in Negative Control Group)/(increased amount of auricular thickness in Positive Control Group−increased amount of auricular thickness in Negative Control Group)×100"}, "[5]": {"tested_on": "human three-dimensional culture epidermal model (LabCyte EPI-MODEL)", "test": "Suppression by cholesterol of skin irritation mediator production induced by drugs in a human epidermal cell (Experiment 2)", "type": "cell-based", "conditions": "1% by mass of cholesterol; summary of Table 2", "protocol": "as §1, §2, §3\nCholesterol was used as a test substance. The drugs shown in Table 2 were used as the cutaneous irritants.\nTests were conducted by the following group composition. • Drug Only Group: A group with addition of only the drug dispersed in a vehicle, as a test solution. Concentrations of the drugs are shown in Table 2. • Drug Plus Cholesterol Group: A group with addition of the drug and 1% by mass of cholesterol which were dispersed in a vehicle, as a test solution.\nThe experiment was conducted while other conditions were set in the same manner as in Experiment 1."}}, "note": "Like-named read-outs stand apart in the source and are kept apart here."}
{"smiles": "CC(C)CCC[C@@H](C)[C@H]1CC[C@H]2[C@@H]3CC=C4C[C@@H](O)CC[C@]4(C)[C@H]3CC[C@]12C", "note": "[Cholesterol, cholesterol]", "values": [{"measurement": "Effect of cholesterol on skin irritation mediator production due to asenapine and LADA (in words)", "setting": "[1]", "result": "exhibited effects of suppressing the skin irritation mediator production on skin irritation due to asenapine and LADA"}, {"measurement": "Skin primary irritation index (PII), average value", "setting": "[2]", "result": "reduces skin irritation due to the drug"}, {"measurement": "activity at 1 %", "setting": "[3]; read-out: Relative Production Amount of Skin Irritation Mediator when Production Amount in PMA Only Group is Set to 100: IL-1α", "result": 50, "unit": "%"}, {"measurement": "activity at 1 %", "setting": "[3]; read-out: Relative Production Amount of Skin Irritation Mediator when Production Amount in PMA Only Group is Set to 100: IL-6", "result": 0, "unit": "%"}, {"measurement": "activity at 1 %", "setting": "[3]; read-out: Relative Production Amount of Skin Irritation Mediator when Production Amount in PMA Only Group is Set to 100: IL-8", "result": 65, "unit": "%"}, {"measurement": "activity at 1 %", "setting": "[3]; read-out: Relative Production Amount of Skin Irritation Mediator when Production Amount in PMA Only Group is Set to 100: PGE2", "result": 17, "unit": "%"}, {"measurement": "Effect on skin irritation mediator production by PMA (in words)", "setting": "[3]; summary of Table 1", "result": "exhibited effects of suppressing the skin irritation mediator production by PMA"}, {"measurement": "Inhibition Ratio Of Ear Swelling", "setting": "[4]; ddY female mouse, 1% by mass of test substance in 2% croton oil solution, 25 μL on ears, auricular thickness 6 hours after", "result": 70.6, "unit": "%"}, {"measurement": "Effect on croton oil-induced mouse ear swelling reaction (in words)", "setting": "[4]; summary of Table 3", "result": "suppress croton oil-induced mouse ear swelling reaction"}, {"measurement": "Effect of cholesterol on drug-induced production of the skin irritation mediator (in words)", "setting": "[5]", "result": "exhibited effects of suppressing of production of the skin irritation mediator on a wide range of drugs"}]}
